Experimental data reported in patent US20030129205A1, “Composition and method for the prevention and/or the treatment of allergy” (priority 2000, published 2003).

B1: myoglobin: Sheep myoglobin purchased from Sigma Chemicals; red pigment, oxygen reservoir of muscle cells (protein, UniProt P02190 2-154, looked up)
Myoglobin: GLSDGEWQLVLNAWGKVEADVAGHGQEVLIRLFTGHPETLEKFDKFKHLKTEAEMKASEDLKKHGNTVLTALGGILKKKGHHEAEVKHLAESHANKHKIPVKYLEFISDAIIHVLHAKHPSDFGADAQGAMSKALELFRNDMAAQYKVLGFQG

Assays:
[1] = system: T cells from peripheral blood; assay: proliferation assay with T cells from peripheral blood of atopic individuals; assay type: cell-based
Protocol: (§1) Functional cross-reactivity between Der p II, FIS and myoglobin was checked by in vitro proliferation assays. Thus, the T cell suspension was adjusted to 5×10^6 cells per ml in RPMI 1640 buffer supplemented with 2 mM glutamine, 100 U penicillin/ml, 100 jug streptomycin/ml, 5% heat-inactivated fetal calf serum and 5×10^−5 M 2-mercaptoethanol. One hundred μl of the T-cell-enriched fraction ([…]) was cultured in 100 μl of the above-described medium containing different concentrations of test peptide or myoglobin, and mitomycin-C treated syngeneic naive spleen cells as a source of APC (4×10^5 per well). Incubation was carried out into a humidified atmosphere of 5% CO2 in air for 4 days, and cells were pulsed during a final 18-h incubation with 1 μCi of [^3H] thymidine per well. The cells were then harvested onto glass fibres using a multiple-cell harvester. Radioactivity incorporated into proliferating cells was determined in a liquid scintillation counter. All tests were carried out in triplicate. The proliferative response was expressed as c.p.m.×10 after subtracting background value incorporation in the absence of antigen.
Moreover, T cells were prepared from the peripheral blood of atopic individuals. Thus, a 50-ml sample of peripheral blood was obtained in heparin. The blood sample was diluted vol/vol in RPMI 1640 and applied to a Ficoll-Hypaque density gradient. […]

mouse T cells = assay: T cell proliferation assay in mice of additional H-2 haplotypes; assay type: cell-based; details: H-2b (C57BL/6), H-2k (C3H), H-2d (SJL) as printed; significant proliferative response for the three haplotypes
CD4+ T cells = assay: in vitro T cell proliferation assay ([3H]thymidine incorporation) with T cells of immunized Balb/c mice; assay type: cell-based, mouse; details: for proliferation of T cells from immunized mice: Balb/c (H-2d) mice immunized in footpad with 100 μg in complete Freund's adjuvant, lymph node CD4+ T cells restimulated in vitro with myoglobin or Der p II; for immunogenicity: Balb/c mice, subcutaneous immunization
Protocol: In order to determine experimentally whether this sequence homology could result in functional cross-reactivity between Der p II and myoglobin, mice were immunized by subcutaneous injections of FIS (SEQ ID NO. 2) or myoglobin.
Balb/c mice (H-2^d) were injected once in the footpad with 50 μl of a solution containing 100 μg of peptide or myoglobin emulsified in complete Freund's adjuvant. Ten days later, regional lymph nodes were retrieved, teased and extensively washed with sterile saline to recover cells. The cell suspension was then washed in RPMI buffer (Gibco). Pure CD4^+ T cell suspensions were obtained by negative selection using antibodies towards CD45R, CD11b and CD11c, all conjugated to magnetic beads according to the manufacturer's instructions (Miltenyi Biotech GmbH, Germany).
as §1

Molecule	proportion of human subjects recognising the T cell epitope [1]	recognition of T cell epitope in additional mouse H-2 haplotypes (mouse T cells)	proliferation of T cells from immunized mice (CD4+ T cells)	immunogenicity (CD4+ T cells)
SEPCIIHRGKP (Dermatophagoides) [SEQ ID NO. 1]	more than 85%	recognised in the context of three additional mouse H-2 haplotypes		
FISEAIIHVLHSR (Physeter catodon)			proliferated to myoglobin and to Der p II	immunogen
B1			proliferated to myoglobin and to Der p II	immunogen
